Data set [1] is described as follows: Free plasma concentration in depilated mouse at 30 mg/kg, po administered once daily for 13 days measured 24 hrs post-last dose. The class given is ADME, organism-based. To be noted: in vivo.
A short description of data set [2]: Free plasma concentration in depilated mouse at 120 mg/kg, po administered once daily for 13 days measured 24 hrs post-last dose. The conditions noted are these: in vivo. The class given is ADME, organism-based.
A short description of data set [3]: Free plasma concentration in depilated mouse at 10 mg/kg, po administered once daily for 13 days measured 24 hrs post-last dose. It counts as ADME, organism-based. The conditions noted are these: in vivo.
Data set [4] is described as follows: Stability in rat liver microsomes at 1 uM measured after 30 mins in presence of NADPH. It counts as ADME, Microsome. To be noted: read-out: Stability. Background: Liver microsomes are a subcellular fraction often used to study metabolism.
Data set [5] can be described thus: Stability in human liver microsomes at 1 uM measured after 30 mins in presence of NADPH. It counts as ADME, Microsome. To be noted: read-out: Stability.
Data set [6] can be described thus: Half life in rat at 1 mg/kg, iv. It counts as ADME, organism-based. The conditions noted are these: in vivo.
Data set [7] is described as follows: Clearance in rat at 1 mg/kg, iv. The conditions noted are these: in vivo. The class given is ADME, organism-based.
Data set [8] can be described thus: Stability in dog liver microsomes at 0.5 uM measured after 30 mins in presence of NADPH. It counts as ADME, Canis lupus familiaris, Microsome. The conditions noted are these: read-out: Stability.
Data set [9] can be described thus: Free plasma concentration in depilated mouse at 100 mg/kg, po administered once daily for 13 days measured 24 hrs post-last dose. The class given is ADME, organism-based. To be noted: in vivo.
The nature of data set [10]: Stability in monkey liver microsomes at 0.5 uM measured after 30 mins in presence of NADPH. To be noted: rhesus monkey, read-out: Stability. The class given is ADME, Macaca mulatta, Microsome.
The nature of data set [11]: Oral bioavailability in cynomolgus monkey at 3 mg/kg. It counts as ADME, organism-based, Macaca fascicularis. The conditions noted are these: in vivo.
A short description of data set [12]: Oral bioavailability in Beagle dog at 10 mg/kg. The class given is ADME, organism-based, Canis lupus familiaris. The conditions noted are these: in vivo.
Data set [13] in a line: Volume of distribution at steady state in monkey at 1 mg/kg, iv. The class given is ADME, organism-based, Macaca mulatta. To be noted: rhesus monkey, in vivo, read-out: Vdss.
The nature of data set [14]: Volume of distribution at steady state in rat at 1 mg/kg, iv. It counts as ADME, organism-based. The conditions noted are these: in vivo, read-out: Vdss.
The nature of data set [15]: AUCt in cynomolgus monkey at 3 mg/kg, po. It counts as ADME, organism-based, Macaca fascicularis. The conditions noted are these: in vivo.
Data set [16] is described as follows: Clearance in monkey at 1 mg/kg, iv. It counts as ADME, organism-based, Macaca mulatta. To be noted: rhesus monkey, in vivo.
Data set [17] is described as follows: AUCt in rat at 3 mg/kg, po. It counts as ADME, organism-based. The conditions noted are these: in vivo.
Data set [18] can be described thus: Half life in monkey at 1 mg/kg, iv. The class given is ADME, organism-based, Macaca mulatta. The conditions noted are these: rhesus monkey, in vivo.
Data set [19] is described as follows: Clearance in Beagle dog at 1 mg/kg, iv. The class given is ADME, organism-based, Canis lupus familiaris. To be noted: in vivo.
Data set [20] can be described thus: AUCt in Beagle dog at 10 mg/kg, po. The class given is ADME, organism-based, Canis lupus familiaris. To be noted: in vivo.
Data set [21] can be described thus: Volume of distribution at steady state in Beagle dog at 1 mg/kg, iv. To be noted: in vivo, read-out: Vdss. It counts as ADME, organism-based, Canis lupus familiaris.
Data set [22] in a line: Oral bioavailability in rat at 3 mg/kg. It counts as ADME, organism-based. The conditions noted are these: in vivo.
The nature of data set [23]: Half life in Beagle dog at 1 mg/kg, iv. The class given is ADME, organism-based, Canis lupus familiaris. The conditions noted are these: in vivo.

For the molecule `NC1=N[C@@]2(CO1)c1cc(-c3cccnc3F)ccc1Oc1c2cc(C2=CCCOC2)nc1F`, the entries for the “Cp(f)” value in data set [1], in data set [2] and in [3] were 88 nM, 328 nM and 38 nM, respectively.
For `C#CCOc1cnc(C(=O)Nc2cc(F)c(F)c([C@@]3(C)N=C(N)S[C@@]4(CF)C[C@H]43)c2)cn1`, the microsomal CLint at 1 µM in [4] is 87 µL/min/mg; in data set [5] it was 76 µL/min/mg.
For the molecule `COC[C@]12C[C@H]1[C@@](C)(c1cc(NC(=O)c3cnc(OCCC(F)(F)F)cn3)cc(F)c1F)N=C(N)S2`, the values for the microsomal CLint at 1 µM in [4] and in data set [5] were 156 µL/min/mg and 29 µL/min/mg, respectively.
In the case of `C[C@]1(c2cc(NC(=O)c3ccc(Cl)cn3)cc(F)c2F)N=C(N)S[C@@]2(C(N)=O)C[C@H]21`, the microsomal CLint at 1 µM in data set [4] and in data set [5] was under 14 µL/min/mg in each case.
Turning to `C#CCOc1cnc(C(=O)Nc2cc(F)c(F)c([C@@]3(C)N=C(N)S[C@@]4(COC)C[C@H]43)c2)cn1`, the values for the half-life in [6], in data set [18] and in data set [23] were 1.5 h, 8.3 h and 2 h, respectively. In addition, the clearance was 21.7 mL/min/kg in data set [7], 35 mL/min/kg in [16] and 15 mL/min/kg in data set [19]. Further, the microsomal CLint at 0.5 µM turned out to be 62 µL/min/mg in data set [8] and 146 µL/min/mg in [10]. Besides, the “Cp(f)” value in data set [9] turned out to be 32 nM. Further, the microsomal CLint at 1 µM is 84 µL/min/mg in data set [4] and 41 µL/min/mg in data set [5]. Moreover, the bioavailability in data set [11] came out at 28%; in [12], 100%; in data set [22], 48%. For the same molecule, the Vd in data set [13] was 17 L/kg; in [14], 1.7 L/kg; in [21], 3.2 L/kg. Further, the AUCt was determined as 2.3 µM·h in data set [15], 2.4 µM·h in data set [17] and 22 µM·h in data set [20].

In general, half-life refers to how long it takes for the measured level to halve. Usually clearance stands for the rate of elimination divided by the concentration. A word on the bioavailability: it is the share of a dose that reaches the circulation, judged against a reference dose that is usually intravenous.

The values are drawn from ChEMBL document CHEMBL4342420, “Discovery of AM-6494: A Potent and Orally Efficacious β-Site Amyloid Precursor Protein Cleaving Enzyme 1 (BACE1) Inhibitor with in Vivo Selectivity over BACE2” (J Med Chem, 2020).
